Results from PubChem BioAssay (NCI).
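The compound was tested at five concentrations on cells cultured in 96-well plates, with a 48-hour exposure period. TGI denotes the concentration required for complete inhibition of growth.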

Experiments:
Test in all cases: NCI anticancer screen, dose series, 48 h
HOP-18 NSCLC = system: HOP-18 NSCLC
SF-539 CNS = system: SF-539 CNS
NCI-H460 lung = system: NCI-H460 lung
NCI-H23 lung = system: NCI-H23 lung
KM20L2 colon = system: KM20L2 colon
SNB-19 CNS = system: SNB-19 CNS
RPMI-8226 leukemia = system: RPMI-8226 leukemia
LOX IMVI melanoma = system: LOX IMVI melanoma
M14 melanoma = system: M14 melanoma
DMS 273 small cell lung = system: DMS 273 small cell lung
MOLT-4 leukemia = system: MOLT-4 leukemia
OVCAR-3 ovarian = system: OVCAR-3 ovarian
SK-MEL-28 melanoma = system: SK-MEL-28 melanoma
CCRF-CEM leukemia = system: CCRF-CEM leukemia
DMS 114 small cell lung = system: DMS 114 small cell lung
UACC-62 melanoma = system: UACC-62 melanoma
HCC-2998 colon = system: HCC-2998 colon
OVCAR-5 ovarian = system: OVCAR-5 ovarian
CAKI-1 renal = system: CAKI-1 renal
DLD-1 colon = system: DLD-1 colon
SW-620 colon = system: SW-620 colon
K-562 leukemia = system: K-562 leukemia
OVCAR-8 ovarian = system: OVCAR-8 ovarian
HOP-62 NSCLC = system: HOP-62 NSCLC
UACC-257 melanoma = system: UACC-257 melanoma
SK-MEL-5 melanoma = system: SK-MEL-5 melanoma
EKVX NSCLC = system: EKVX NSCLC
U251 CNS = system: U251 CNS
HCT-15 colon = system: HCT-15 colon
SN12C renal = system: SN12C renal
SF-295 CNS = system: SF-295 CNS
IGROV1 ovarian = system: IGROV1 ovarian
OVCAR-4 ovarian = system: OVCAR-4 ovarian
HL-60(TB) leukemia = system: HL-60(TB) leukemia
HT29 colon = system: HT29 colon
SNB-75 CNS = system: SNB-75 CNS
NCI-H522 lung = system: NCI-H522 lung
COLO 205 colon = system: COLO 205 colon
KM12 colon = system: KM12 colon
RXF 393 renal = system: RXF 393 renal
786-0 renal = system: 786-0 renal
M19-MEL melanoma = system: M19-MEL melanoma
SK-OV-3 ovarian = system: SK-OV-3 ovarian
MALME-3M melanoma = system: MALME-3M melanoma
TK-10 renal = system: TK-10 renal
HOP-92 NSCLC = system: HOP-92 NSCLC
A549 NSCLC = system: A549 NSCLC
SK-MEL-2 melanoma = system: SK-MEL-2 melanoma
UO-31 renal = system: UO-31 renal
LXFL 529 NSCLC = system: LXFL 529 NSCLC
SF-268 CNS = system: SF-268 CNS
ACHN renal = system: ACHN renal
SNB-78 CNS = system: SNB-78 CNS
HCT-116 colon = system: HCT-116 colon
NCI-H226 lung = system: NCI-H226 lung
A498 renal = system: A498 renal
XF 498 CNS = system: XF 498 CNS
SR leukemia = system: SR leukemia

C/C=C/CC(C)[C@@H](O)[C@H](NC)C(=O)O (some centres undefined)
TGI (HOP-18 NSCLC): > 100 µM
TGI (SF-539 CNS): > 100 µM
TGI (NCI-H460 lung): > 100 µM
TGI (NCI-H23 lung): > 100 µM
TGI (KM20L2 colon): > 100 µM
TGI (SNB-19 CNS): > 100 µM
TGI (RPMI-8226 leukemia): > 100 µM
TGI (LOX IMVI melanoma): > 100 µM
TGI (M14 melanoma): > 100 µM
TGI (DMS 273 small cell lung): > 100 µM
TGI (MOLT-4 leukemia): > 100 µM
TGI (OVCAR-3 ovarian): > 100 µM
TGI (SK-MEL-28 melanoma): > 100 µM
TGI (CCRF-CEM leukemia): > 100 µM
TGI (DMS 114 small cell lung): > 100 µM
TGI (UACC-62 melanoma): > 100 µM
TGI (HCC-2998 colon): > 100 µM
TGI (OVCAR-5 ovarian): > 100 µM
TGI (CAKI-1 renal): > 100 µM
TGI (DLD-1 colon): > 100 µM
TGI (SW-620 colon): > 100 µM
TGI (K-562 leukemia): > 100 µM
TGI (OVCAR-8 ovarian): > 100 µM
TGI (HOP-62 NSCLC): > 100 µM
TGI (UACC-257 melanoma): > 100 µM
TGI (SK-MEL-5 melanoma): > 100 µM
TGI (EKVX NSCLC): > 100 µM
TGI (U251 CNS): > 100 µM
TGI (HCT-15 colon): > 100 µM
TGI (SN12C renal): > 100 µM
TGI (SF-295 CNS): > 100 µM
TGI (IGROV1 ovarian): > 100 µM
TGI (OVCAR-4 ovarian): > 100 µM
TGI (HL-60(TB) leukemia): > 100 µM
TGI (HT29 colon): > 100 µM
TGI (SNB-75 CNS): > 100 µM
TGI (NCI-H522 lung): > 100 µM
TGI (COLO 205 colon): > 100 µM
TGI (KM12 colon): > 100 µM
TGI (RXF 393 renal): > 100 µM
TGI (786-0 renal): > 100 µM
TGI (M19-MEL melanoma): > 100 µM
TGI (SK-OV-3 ovarian): > 100 µM
TGI (MALME-3M melanoma): > 100 µM
TGI (TK-10 renal): > 100 µM
TGI (HOP-92 NSCLC): > 100 µM
TGI (A549 NSCLC): > 100 µM
TGI (SK-MEL-2 melanoma): > 100 µM
TGI (UO-31 renal): > 100 µM
TGI (LXFL 529 NSCLC): > 100 µM
TGI (SF-268 CNS): > 100 µM
TGI (ACHN renal): > 100 µM

Cc1c(C(=O)/C=C/c2ccccc2O)c(=O)n(-c2ccccc2)n1C
TGI (SF-539 CNS): 55.5 µM
TGI (NCI-H460 lung): 53.3 µM
TGI (KM20L2 colon): > 100 µM
TGI (SNB-78 CNS): > 100 µM
TGI (SNB-19 CNS): > 100 µM
TGI (LOX IMVI melanoma): 45.9 µM
TGI (HCT-116 colon): 34.6 µM
TGI (DMS 273 small cell lung): > 100 µM
TGI (MOLT-4 leukemia): 63.2 µM
TGI (OVCAR-3 ovarian): > 100 µM
TGI (SK-MEL-28 melanoma): > 100 µM
TGI (CCRF-CEM leukemia): 86.9 µM
TGI (DMS 114 small cell lung): > 100 µM
TGI (UACC-62 melanoma): > 100 µM
TGI (HCC-2998 colon): 29.5 µM
TGI (OVCAR-5 ovarian): > 100 µM
TGI (CAKI-1 renal): 73.8 µM
TGI (DLD-1 colon): 27.9 µM
TGI (SW-620 colon): 35.5 µM
TGI (OVCAR-8 ovarian): 40.7 µM
TGI (UACC-257 melanoma): 89.7 µM
TGI (SK-MEL-5 melanoma): 28.6 µM
TGI (EKVX NSCLC): > 100 µM
TGI (U251 CNS): 35.9 µM
TGI (HCT-15 colon): 60.5 µM
TGI (NCI-H226 lung): 64.6 µM
TGI (SN12C renal): 52.6 µM
TGI (SF-295 CNS): 54.9 µM
TGI (IGROV1 ovarian): > 100 µM
TGI (A498 renal): 90 µM
TGI (HT29 colon): > 100 µM
TGI (SNB-75 CNS): > 100 µM
TGI (NCI-H522 lung): 47.5 µM
TGI (COLO 205 colon): 70.8 µM
TGI (XF 498 CNS): 46.3 µM
TGI (RXF 393 renal): 50.8 µM
TGI (786-0 renal): 70 µM
TGI (M19-MEL melanoma): 74.6 µM
TGI (SK-OV-3 ovarian): > 100 µM
TGI (MALME-3M melanoma): 70.7 µM
TGI (TK-10 renal): > 100 µM
TGI (HOP-92 NSCLC): 64.6 µM
TGI (A549 NSCLC): > 100 µM
TGI (SK-MEL-2 melanoma): 38.4 µM
TGI (LXFL 529 NSCLC): 37.5 µM
TGI (SF-268 CNS): > 100 µM
TGI (ACHN renal): 45.2 µM

CC(C)(C)C(=O)OCC1CCC(n2cnc3c(=O)[nH]c(N)nc32)O1 (centres undefined)
TGI (HOP-18 NSCLC): > 100 µM
TGI (SF-539 CNS): > 100 µM
TGI (NCI-H460 lung): > 100 µM
TGI (NCI-H23 lung): > 100 µM
TGI (KM20L2 colon): > 100 µM
TGI (SNB-78 CNS): > 100 µM
TGI (SNB-19 CNS): > 100 µM
TGI (RPMI-8226 leukemia): > 100 µM
TGI (LOX IMVI melanoma): > 100 µM
TGI (M14 melanoma): > 100 µM
TGI (HCT-116 colon): > 100 µM
TGI (DMS 273 small cell lung): > 100 µM
TGI (OVCAR-3 ovarian): > 100 µM
TGI (SK-MEL-28 melanoma): > 100 µM
TGI (CCRF-CEM leukemia): > 100 µM
TGI (DMS 114 small cell lung): > 100 µM
TGI (UACC-62 melanoma): > 100 µM
TGI (HCC-2998 colon): > 100 µM
TGI (OVCAR-5 ovarian): > 100 µM
TGI (CAKI-1 renal): > 100 µM
TGI (SW-620 colon): > 100 µM
TGI (K-562 leukemia): > 100 µM
TGI (OVCAR-8 ovarian): > 100 µM
TGI (HOP-62 NSCLC): > 100 µM
TGI (UACC-257 melanoma): > 100 µM
TGI (SK-MEL-5 melanoma): > 100 µM
TGI (EKVX NSCLC): > 100 µM
TGI (U251 CNS): > 100 µM
TGI (HCT-15 colon): > 100 µM
TGI (NCI-H226 lung): > 100 µM
TGI (SN12C renal): > 100 µM
TGI (SF-295 CNS): > 100 µM
TGI (IGROV1 ovarian): > 100 µM
TGI (A498 renal): > 100 µM
TGI (OVCAR-4 ovarian): > 100 µM
TGI (HT29 colon): > 100 µM
TGI (SNB-75 CNS): > 100 µM
TGI (COLO 205 colon): > 100 µM
TGI (KM12 colon): > 100 µM
TGI (XF 498 CNS): > 100 µM
TGI (786-0 renal): > 100 µM
TGI (M19-MEL melanoma): > 100 µM
TGI (SK-OV-3 ovarian): > 100 µM
TGI (MALME-3M melanoma): > 100 µM
TGI (TK-10 renal): > 100 µM
TGI (HOP-92 NSCLC): > 100 µM
TGI (A549 NSCLC): > 100 µM
TGI (SK-MEL-2 melanoma): > 100 µM
TGI (UO-31 renal): > 100 µM
TGI (SF-268 CNS): > 100 µM
TGI (ACHN renal): > 100 µM

O=c1[nH]c2cc(Cl)ccc2nc1/C(=N\O)C(O)c1ccc([N+](=O)[O-])cc1 (centres undefined)
TGI (SF-539 CNS): > 100 µM
TGI (NCI-H460 lung): > 100 µM
TGI (KM20L2 colon): > 100 µM
TGI (SNB-19 CNS): > 100 µM
TGI (RPMI-8226 leukemia): > 100 µM
TGI (LOX IMVI melanoma): > 100 µM
TGI (M14 melanoma): > 100 µM
TGI (HCT-116 colon): > 100 µM
TGI (DMS 273 small cell lung): > 100 µM
TGI (MOLT-4 leukemia): > 100 µM
TGI (CCRF-CEM leukemia): > 100 µM
TGI (DMS 114 small cell lung): > 100 µM
TGI (UACC-62 melanoma): > 100 µM
TGI (HCC-2998 colon): > 100 µM
TGI (CAKI-1 renal): > 100 µM
TGI (DLD-1 colon): > 100 µM
TGI (SW-620 colon): > 100 µM
TGI (K-562 leukemia): > 100 µM
TGI (SR leukemia): > 100 µM
TGI (OVCAR-8 ovarian): > 100 µM
TGI (HOP-62 NSCLC): > 100 µM
TGI (UACC-257 melanoma): > 100 µM
TGI (SK-MEL-5 melanoma): > 100 µM
TGI (EKVX NSCLC): > 100 µM
TGI (U251 CNS): > 100 µM
TGI (HCT-15 colon): > 100 µM
TGI (SN12C renal): > 100 µM
TGI (SF-295 CNS): > 100 µM
TGI (IGROV1 ovarian): > 100 µM
TGI (A498 renal): > 100 µM
TGI (OVCAR-4 ovarian): > 100 µM
TGI (HL-60(TB) leukemia): > 100 µM
TGI (HT29 colon): > 100 µM
TGI (SNB-75 CNS): > 100 µM
TGI (COLO 205 colon): > 100 µM
TGI (KM12 colon): > 100 µM
TGI (XF 498 CNS): > 100 µM
TGI (RXF 393 renal): > 100 µM
TGI (786-0 renal): > 100 µM
TGI (M19-MEL melanoma): > 100 µM
TGI (SK-OV-3 ovarian): > 100 µM
TGI (MALME-3M melanoma): > 100 µM
TGI (TK-10 renal): > 100 µM
TGI (A549 NSCLC): > 100 µM
TGI (SK-MEL-2 melanoma): > 100 µM
TGI (UO-31 renal): > 100 µM
TGI (LXFL 529 NSCLC): > 100 µM
TGI (SF-268 CNS): > 100 µM
TGI (ACHN renal): > 100 µM
